Data: ChEMBL document CHEMBL4007488, “Amphiphilic Indole Derivatives as Antimycobacterial Agents: Structure-Activity Relationships and Membrane Targeting Properties” (J Med Chem, 2017)

Legend:
Format in all cases: functional
[1] = test system: Mycobacterium tuberculosis variant bovis BCG; experiment: Ratio of WCC99.9 for Mycobacterium bovis BCG ATCC 35734 under low-oxygen tension conditions to MBC99.9 for Mycobacterium bovis BCG ATCC 35734
[2] = test system: Mycobacterium tuberculosis variant bovis BCG; experiment: Ratio of WCC99.9 for Mycobacterium bovis BCG ATCC 35734 under low-oxygen tension conditions to MIC90 for Mycobacterium bovis BCG ATCC 35734
[3] = test system: Mycobacterium tuberculosis variant bovis BCG; experiment: Ratio of MBC99.9 to MIC90 for Mycobacterium bovis BCG ATCC 35734

`CCCCCCCCn1cc(CN2CCCCCC2)c2c(F)cccc21` showed a Ratio [1] greater than 2, a Ratio [2] greater than 4 and a Ratio [3] of 2.
